# Laboratory results: a melting point compilation (Tetko et al.)
row,SMILES,melting point [°C]
1,O=c1[nH]ccn(C2CC2)c1=O,161 to 163
2,NC(=O)C1CCC(C(=O)O)CC1 (configuration not stated),205 to 207
3,c1ccc2c(c1)ncn2C1CCCNC1 (configuration not stated),104 to 106
4,Cc1ccc2nc(-c3ccc(N=C=S)cc3)sc2c1,243 to 245
5,Cc1cc(NC(=O)C(C)SCC(=O)O)no1 (configuration not stated),125 to 127
6,CCC(Nc1nnnn1-c1ccccc1)C(=O)O (configuration not stated),149 to 151
7,NC(=O)NC(=O)OCCCCl,165 to 167
8,O=C(O)C1CC(=O)N(c2ccc(Cl)c(F)c2)C1 (configuration not stated),149 to 151
9,Sc1nnc(-c2ccc(Cl)cc2)n1Cc1ccco1,117 to 119
10,COC(=O)c1cc(Cl)ccn1,55 to 57
11,Cc1cccn2c(=O)cc(Cl)nc12,124 to 126
12,CC(=O)N1CCC(CCl)CC1,48 to 50
13,COC(=O)c1cccc(-c2nn[nH]n2)c1,189 to 191
14,CCCSc1nsc(N)n1,54 to 56
15,N#CCC(=O)c1ccc(F)cc1,84 to 88
16,FC(F)(F)c1ccc(CNc2ccc(Br)cc2)cc1,70 to 72
17,Clc1nc(-c2cccs2)nc2scc(-c3ccccc3)c12,143 to 145
18,COc1cc(C=O)ccc1OCc1c(C)cc(C(C)(C)C)cc1C,139 to 141
19,Nc1ccc2c(c1)N1CCN=C1S2,201 to 204
20,NC(=O)c1ncccc1N,176 to 178
21,CCn1c(SCC(=O)O)nnc1-c1cccc(C)c1,281 to 283
22,Cc1ncc(C(=O)O)s1,209 to 211
23,N#Cc1ccc(C(=O)O)nc1,210 to 215
24,O=C(O)c1ccc(-c2ccncc2)[nH]c1=O,315 to 317
25,COc1cccc(C(=O)NN2C(=O)CSC2=S)c1,156 to 158

row,SMILES,melting point [°C]
1,O=C(O)c1ccc(NS(=O)(=O)c2ccc(Br)cc2)cc1,267 to 269
2,O=Cc1cnc(N2CCOCC2)s1,163 to 165
3,O=C(Nc1ccc(Cl)cc1)OCC(F)(F)F,69 to 71
4,CN1CCN(c2ccc(N)cn2)CC1,109 to 111
5,Nc1ccc(F)c(NC(=O)c2ccsc2)c1,118 to 120
6,Cc1ccccc1OCC(=O)NN,120 to 122
7,NCCS(=O)(=O)c1ccc(Br)cc1,87 to 89
8,COC(=O)Cc1c(C(=O)OC)sc2nc(CCl)[nH]c(=O)c12,208 to 210
9,O=C(O)C(Sc1cc(F)ccc1F)c1ccccc1 (configuration not stated),106 to 108
10,Cc1ccc(-c2nc(N)sc2C)cc1,173 to 175
11,COc1ccc(NCC(=O)NN)cc1,94 to 98
12,CCOc1ccc(NS(=O)(=O)c2ccc(C)c(N)c2)cc1,116 to 118
13,Cn1ncc2c(N3CCNCC3)ncnc21,64 to 66
14,CN(C)S(=O)(=O)c1ccc(C(=O)CBr)cc1,90 to 92
15,CC(C(=O)O)N(C)C(=O)OCC1c2ccccc2-c2ccccc21 (configuration not stated),119 to 121
16,COC(=O)Cn1ncc2c(Cl)ncnc21,66 to 68
17,O=C(O)c1cc(S(=O)(=O)N2CCC2)ccc1Cl,172 to 174
18,Cc1nn(Cc2ccc(Cl)cc2Cl)c(Cl)c1C(=O)O,227 to 229
19,O=S(=O)(CCCBr)c1ccc(F)cc1,36 to 38
20,NNC(=O)c1ccc(COc2ccccc2)cc1,148 to 150
21,O=c1cc(CO)occ1OCc1ccccc1,96 to 98
22,O=C(O)c1ccc(Cn2nnc3ccccc32)cc1,264 to 266
23,OCC1(NCc2ccccc2)CCC1,51 to 53
24,O=C(O)COc1ccc(C2SCCCS2)cc1,201 to 203
25,COc1ccccc1C(N)(C(=O)O)C(F)(F)F (configuration not stated),97 to 99

row,SMILES,melting point [°C]
1,NC(=O)N1CCN(c2ccccc2F)CC1,150 to 152
2,CCOc1ccc(C(=O)O)cc1C,198 to 200
3,Cc1cccc(C(=O)CC#N)c1C,56 to 58
4,O=C1COc2cc([N+](=O)[O-])ccc2N1,225 to 227
5,COc1ccc2[nH]cc(C3=CCNCC3)c2c1,181 to 183
6,COc1ccccc1NS(=O)(=O)c1ccc2oc(S)nc2c1,109 to 113
7,NC(CC1C(=O)Nc2ccccc21)=NO (configuration not stated),183 to 185
8,CCCOc1ccc(C#N)cc1OC,90 to 92
9,O=C(O)c1cc(Br)cc([N+](=O)[O-])c1Cl,226 to 228
10,CCCS(=O)(=O)N1CCCC(C(=O)O)C1 (configuration not stated),122 to 124
11,CCOC(=O)C(=O)CC(=O)c1ccc2ccccc2c1,51 to 53
12,c1nc(N2CCNCC2)c2ccsc2n1,71 to 73
13,COc1cccc(Cn2ccc3ccc(N)cc32)c1,59 to 61
14,NC(=O)COc1cccc(O)c1,134 to 136
15,Cc1ccc(F)cc1S(=O)(=O)Nc1cccc(C(=O)O)c1,215 to 217
16,NC(=O)CSc1ccccc1NC(=O)CCl,129 to 131
17,NNC(=O)C(F)(F)Oc1ccccc1,76 to 78
18,CC(C)c1ccc2cc(C(=O)O)[nH]c2c1,132 to 134
19,CCNC(=O)c1cccc(N)c1,69 to 71
20,Cc1cc(C)c2oc(N)nc2c1,197 to 199
21,CCNc1ccc(S(=O)(=O)C(F)F)cc1N,115 to 117
22,Cn1c(S)nnc1N1CCOCC1,194 to 196
23,CC(C)C(=O)N1CCC(C(=O)O)CC1,102 to 104

# Further lines, results first:
row,melting point [°C],SMILES
1,118 to 120,Sc1nnc(-c2ccccc2)n1Cc1ccc2c(c1)OCO2
2,114 to 116,O=[N+]([O-])c1ccc(Cl)c(S(=O)(=O)N2CCCC2)c1
3,78 to 80,COc1cc(SC#N)ccc1O
4,107 to 109,Clc1ccc(-n2cccn2)cn1
5,226 to 228,O=C(O)C=Cc1ccc2ccc(Cl)cc2n1
6,69 to 71,CC(C)(C)OC(=O)N1CC(O)(c2ccc(F)c(F)c2)C1
7,124 to 126,NC(=O)c1cc(Oc2cccc(O)c2)ccn1
8,133 to 135,CCOc1cccc(C=CC(=O)O)c1OC1CCCC1
9,114 to 116,CNC(=O)c1cc(NC)ccn1
10,166 to 168,Nc1ccc2nc(N3CCOCC3)sc2c1
11,159 to 161,Cn1cnn(-c2ccc(N)cc2)c1=O
12,203 to 205,Cc1cc(C(N)C(=O)O)cc(C)c1O (configuration not stated)
13,57 to 59,CC(C)c1nc(Cl)nc(N(C)C)n1
14,100 to 102,CCCOc1ccccc1C(N)=S
15,163 to 165,N#Cc1cccc(NC(=O)c2cccc(N)c2)c1
16,53 to 55,O=C(NCC(F)(F)F)OCC(F)(F)F
17,61 to 63,N#Cc1ccc(S(=O)(=O)Cl)c(F)c1
18,149 to 151,COc1cc(C(=O)O)ccc1OCc1ccccn1
19,219 to 221,O=c1[nH][nH]c2ncc(Br)cc12
20,248 to 250,O=C(O)CN1CCCNC1=O
21,193 to 195,Cn1ncc2c(O)c(C(=O)O)cnc21
22,129 to 131,O=C(CCl)N1CCN(c2ccc([N+](=O)[O-])cc2)CC1
23,134 to 136,O=C(O)C=CC1CCOCC1

row,melting point [°C],SMILES
1,81 to 83,COC(=O)c1cc(S(=O)(=O)Cl)ccc1O
2,316 to 318,Cn1c(=O)c2c(=O)cc(N)[nH]c2n(C)c1=O
3,282 to 284,Cc1cc(C)c2ncc(C(=O)O)c(O)c2c1
4,126 to 128,NS(=O)(=O)c1cnn(CCC(=O)O)c1
5,269 to 271,COc1ccc2c(-c3cccnc3)cc(S)nc2c1
6,165 to 167,O=C1COc2ccc(C(F)(F)F)cc2N1
7,56 to 58,COC(=O)C(N)c1ccc2ccccc2c1 (configuration not stated)
8,111 to 113,CC(C)Oc1ccc(S(=O)(=O)N(C)C)cc1N
9,229 to 231,N#Cc1cc(C(=O)O)c[nH]1
10,232 to 234,Cc1ccc(Nc2snc(O)c2C#N)cc1
11,54 to 56,O=C(CCl)NCC1(c2ccccc2)CCCCC1
12,347 to 349,Cc1nn(-c2ccc(F)cc2)c2ncc(C(=O)O)cc12
13,182 to 184,O=c1[nH]c(-c2cccc(C(F)(F)F)c2)cs1
14,157 to 159,O=C(NO)c1ccccc1C(F)(F)F
15,72 to 74,O=C(c1ccccc1)c1ccccc1Br
16,174 to 176,CC(=O)c1ccc(-n2cnnn2)cc1
17,79 to 81,CC(=O)c1ccc(Oc2ccc(Br)cc2)cc1
18,168 to 170,CCOC(=O)c1c(N)sc(C(=O)OC)c1CC(=O)OC
19,132 to 134,CC(C)(C)OC(=O)N1CCN(S(=O)(=O)C2CNC2)CC1
20,180 to 182,Cc1cc(OCC(=O)O)ccc1Cl
21,93 to 95,Cc1c(Cl)nn2c(C(F)(F)F)nnc2c1C
22,235 to 237,O=C(O)CCCNC(=O)c1ccsc1
23,88 to 90,NNC(=O)c1cccc2cccnc12

row,melting point [°C],SMILES
1,159 to 161,Cc1ccc(NC(=O)NC(=O)CCl)c(C)c1
2,104 to 106,NS(=O)(=O)c1ccc(Cl)cc1F
3,72 to 73,CN(C)c1ccc(N)cc1Cl
4,230 to 232,O=C(O)CNC(=O)c1ccncc1
5,223 to 225,Cn1cc(C(N)=O)cc1C(=O)O
6,86 to 88,Cc1nn(C2CCS(=O)(=O)C2)c(N2CCCCC2)c1C=O (configuration not stated)
7,55 to 57,Cc1c(Cl)cc(N)cc1Cl
8,246 to 248,N#Cc1cccc(/C=C/C(=O)O)c1
9,43 to 45,CNCCCOc1ccc(S(C)(=O)=O)cc1
10,130 to 132,CCCCNc1ccc(S(N)(=O)=O)cc1N
11,259 to 261,CC1CC(C)CC2(C1)NC(=O)N(CC(=O)O)C2=O (configuration not stated)
12,204 to 206,CC(SCc1nc2ccccc2c(=O)[nH]1)C(=O)O (configuration not stated)
13,191 to 193,COC(=O)c1sc2ncccc2c1N
14,186 to 188,NC(=O)C1(O)Cc2ccccc2C1
15,195 to 197,CCNC(=O)c1ccc(NC2CCOCC2)c(C)c1
16,168 to 170,NC(=O)C1COCCN1 (configuration not stated)
17,73 to 75,CC(NC(=O)C(Br)C(C)C)c1ccccc1 (configuration not stated)
18,62 to 64,CNC(C)c1ccc(-n2cnc3ccccc32)cc1 (configuration not stated)
19,85 to 87,Nc1nc(-c2cccc(C(F)(F)F)c2)cs1
20,69 to 71,CCOC(=O)c1cc(CC)sc1N
21,92 to 96,Cc1cc(C(=O)C(C)Cl)c(C)n1-c1ccc(OC(F)F)cc1 (configuration not stated)
22,166 to 168,CN(C)/C=C(/C#N)C(N)=O
23,202 to 204,NC(=S)CC(N)=S
